Read-outs that look alike come from different tables or passages of the source.
Experiments:
SARS-CoV-2 3CLpro [1] = biological target: T1, SARS-CoV-2 3CLpro (Severe acute respiratory syndrome coronavirus 2, UniProt P0DTD1); test: biochemical; format: biochemical; details: for inhibition at 5 µM: 4 h
SARS-CoV-2 3CLpro [2] = biological target: T1, SARS-CoV-2 3CLpro; test: biochemical; format: biochemical
[3] = sheet LOPAC_screen_w_protease, primary screen at 5 µM, mean of two replicates, read-out: mean (LOPAC screen with protease)
[4] = sheet LOPAC_screen_w_protease, primary screen at 5 µM, replicate 1, read-out: Replicate_1 (LOPAC screen with protease)
[5] = sheet LOPAC_screen_w_protease, primary screen at 5 µM, replicate 2, read-out: Replicate_2 (LOPAC screen with protease)
[6] = with 0.01% Triton X-100; mean ± SD of triplicate; 4 h, 30 °C; read-out: A) EC50 with Triton X-100
[7] = without Triton X-100; mean ± SD of triplicate; 4 h, 30 °C; read-out: B) EC50 without Triton X-100
[8] = sheet LOPAC_screen_w_protease, primary screen at 5 µM, mean of two replicates
[9] = sheet LOPAC_screen_w_protease, primary screen at 5 µM, replicate 1
[10] = sheet LOPAC_screen_w_protease, primary screen at 5 µM, replicate 2
[11] = EC50 with Triton X-100 / EC50 without Triton X-100, ratio greater than 2 suggests aggregation-based inhibitor
[12] = with 0.01% Triton X-100, read-out: EC50
[13] = read-out: Replicate_1 (LOPAC screen with protease)
[14] = read-out: Replicate_2 (LOPAC screen with protease)
[15] = read-out: mean (LOPAC screen with protease)

Structure (SMILES)	inhibition at 5 µM (SARS-CoV-2 3CLpro [1]; [3])	inhibition at 5 µM (SARS-CoV-2 3CLpro [1]; [4])	inhibition at 5 µM (SARS-CoV-2 3CLpro [1]; [5])	EC50 (SARS-CoV-2 3CLpro [2]; [6])	EC50 (SARS-CoV-2 3CLpro [2]; [7])	mean (LOPAC screen with protease) (SARS-CoV-2 3CLpro [1]; [8])	Replicate_1 (LOPAC screen with protease) (SARS-CoV-2 3CLpro [1]; [9])	Replicate_2 (LOPAC screen with protease) (SARS-CoV-2 3CLpro [1]; [10])	Ratio (A/B) (SARS-CoV-2 3CLpro [2]; [11])	Ratio (A/B) (SARS-CoV-2 3CLpro [2])	EC50 (SARS-CoV-2 3CLpro [2]; [12])	inhibition at 5 µM (SARS-CoV-2 3CLpro [1]; [13])	inhibition at 5 µM (SARS-CoV-2 3CLpro [1]; [14])	inhibition at 5 µM (SARS-CoV-2 3CLpro [1]; [15])	EC50 (SARS-CoV-2 3CLpro [2]; A) EC50 with Triton X-100)	EC50 (SARS-CoV-2 3CLpro [2]; B) EC50 without Triton X-100)
CCOC(=O)[C@]12CC1/C(=N\O)c1ccccc1O2 (mixture of isomers) [CPCCOEt, reference compound]	26.9%	0.406%	53.3%	> 20000 nM	> 20000 nM	–	–	–	–	–	–	–	–	–	–	–
NC(Cc1cc(O)c(O)cc1O)C(=O)O (racemic) [6-Hydroxy-dl-DOPA, reference compound]	–	–	–	1320 ± 118 nM	652 ± 259 nM	66.3118	69.7112	62.9123	2.0	–	–	–	–	–	–	–
CC1(NCC(O)COc2cccc3[nH]ccc23)CCC(C(C)(C)NC(=O)CBr)CC1 (racemic) [(±)-Pindobind, reference compound]	–	–	–	4690 ± 3320 nM	> 20000 nM	33.6627	33.8938	33.4316	–	–	–	–	–	–	–	–
O=c1oc(Cl)c(Cl)c2ccccc12 [3,4-Dichloroisocoumarin, reference compound]	30.4%	30.8%	30%	8700 ± 2720 nM	5380 ± 612 nM	–	–	–	–	1.6	–	–	–	–	–	–
O=C(O)c1cc[c]([Hg][Cl])cc1 [4-Chloromercuribenzoic acid, reference compound]	–	–	–	–	95 ± 7 nM	103.38	104.085	102.675	–	0.9	85 nM	–	–	–	–	–
O=Nc1ccc2oc(=O)ccc2c1 [6-Nitroso-1,2-benzopyrone, reference compound]	–	–	–	882 ± 110 nM	559 ± 123 nM	91.133	92.4944	89.7716	–	1.6	–	–	–	–	–	–
CC(C)(C)c1ccc(S(=O)(=O)/C=C/C#N)cc1 [Bay 11-7085, reference compound]	–	–	–	1620 ± 103 nM	807 ± 120 nM	90.2992	92.052	88.5464	2.0	–	–	–	–	–	–	–
O=C1O/C(=C/Br)CCC1c1cccc2ccccc12 (stereo not shown) [Bromoenol lactone, reference compound]	–	–	–	817 ± 121 nM	757 ± 73 nM	–	–	–	–	1.1	–	100%	99.7%	99.9%	–	–
O=C(/C=C/c1ccc(O)c(O)c1)OCCc1ccccc1 [Caffeic acid phenethyl ester, reference compound]	29.6%	30.7%	28.6%	> 20000 nM	> 20000 nM	–	–	–	–	–	–	–	–	–	–	–
Oc1cc2c(cc1O)CN(C(=S)NCCc1ccc(Cl)cc1)CCC2 [Capsazepine, reference compound]	–	–	–	–	–	–	–	–	–	1.4	–	91.9%	90.5%	91.2%	944 ± 98 nM	668 ± 330 nM
CN(N=O)c1cc(O)ccc1O [Dephostatin, reference compound]	35.5%	36.5%	34.6%	5030 ± 1220 nM	2280 ± 619 nM	–	–	–	–	2.2	–	–	–	–	–	–
O=c1cc(O)cc(/C=C/c2ccc(O)c(O)c2)o1 [Hispidin, reference compound]	–	–	–	–	–	–	–	–	–	2.8	–	46.3%	38.9%	42.6%	5000 ± 554 nM	1810 ± 828 nM
Cc1c(OCC(F)(F)F)ccnc1C[S+]([O-])c1nc2ccccc2[nH]1 (stereo not shown) [Lansoprazole, reference compound]	–	–	–	–	–	41.5106	48.0924	34.9288	–	3.9	–	–	–	–	5720 ± 865 nM	1460 ± 398 nM
CN(N=O)c1ccc(O)c(O)c1 [Me-3,4-dephostatin, reference compound]	–	–	–	3780 ± 867 nM	1820 ± 925 nM	27.3002	29.2005	25.3998	–	2.1	–	–	–	–	–	–
O=C1C(SCCO)=C(SCCO)C(=O)c2ccccc21 [NSC 95397, reference compound]	–	–	–	> 20000 nM	> 20000 nM	19.1086	20.9168	17.3004	–	–	–	–	–	–	–	–
N=C1Sc2ccccc2C2=NCCCN12 [PD 404,182, reference compound]	101%	101%	100%	–	60 ± 12 nM	–	–	–	–	1.4	81 nM	–	–	–	–	–
Oc1cc(O)cc(/C=C/c2ccc(O)c(O)c2)c1 [Piceatannol, reference compound]	92.3%	93.6%	91.1%	569 ± 75 nM	455 ± 113 nM	–	–	–	–	1.3	–	–	–	–	–	–
Oc1ccccc1O [Pyrocatechol, reference compound]	–	–	–	4040 ± 1420 nM	4090 ± 1220 nM	52.6956	53.9412	51.45	–	1.0	–	–	–	–	–	–
N[C@@H](CCC(=O)N[C@@H](CSN=O)C(=O)NCC(=O)O)C(=O)O [S-Nitrosoglutathione, reference compound]	–	–	–	–	–	–	–	–	–	1.5	–	44.1%	41.7%	42.9%	2290 ± 245 nM	1490 ± 627 nM
Br.Oc1ccc(C2CNCc3sccc32)cc1O (stereo not shown) [SKF 89626, reference compound]	–	–	–	3530 ± 565 nM	2830 ± 1970 nM	42.8167	43.262	42.3715	–	1.2	–	–	–	–	–	–
N#C/C(=C\c1ccc(O)c(O)c1)C(N)=S [Tyrphostin 47, reference compound]	28.2%	30.5%	25.9%	> 20000 nM	15800 ± 10100 nM	–	–	–	–	–	–	–	–	–	–	–
N#CC(C#N)=C(N)/C(C#N)=C/c1cc(O)c(O)c(O)c1 [Tyrphostin 51, reference compound]	–	–	–	19000 ± 14200 nM	9120 ± 5300 nM	–	–	–	–	2.1	–	28%	28.9%	28.5%	–	–
COc1ccc2c(c1)CC[C@@H]1[C@@H]2CC[C@]2(C)[C@@H](NCCCCCCN3C(=O)C=CC3=O)CC[C@@H]12 [U-73122, reference compound]	–	–	–	694 ± 82 nM	350 ± 17 nM	88.5998	89.4118	87.7878	2.0	–	–	–	–	–	–	–

Source: article PMC7587356, “High-Throughput Screening for Inhibitors of the SARS-CoV-2 Protease Using a FRET-Biosensor” (Molecules, 2020)
